# Measured values reported in patent US20190387748A1, “COMPOSITIONS AND RELATED METHODS FOR AGRICULTURE” (priority 2017, published 2019).
# Entries after “also recorded” stand apart in the source; their conditions may differ.
# How the values were obtained:
# Format in all cases: in vivo
# [1] = system: Acyrthosiphon pisum aphids; assay: Aphid body area (size) measurement; settings: 10 or 100 uM pantothenol, through plants; by 3 days post-treatment
# Description: (§1) For adult aphids, new nymphs were counted daily and then discarded. At the end of the experiments, fecundity was determined as the mean number of offspring produced daily once the aphid reached adulthood. Pictures of aphids were taken throughout the experiment to evaluate size differences between treatment groups.
# Each treatment group received approximately the same number of individuals from each of the collection plant. For each treatment, 20 aphids were placed onto each leaf. Aphids were monitored daily for survival and dead aphids were removed when they were discovered. In addition, the developmental stage (1st, 2nd, 3rd, 4th, 5th instar, and 5R, representing a reproducing 5th instar) was determined daily throughout the experiment. […]
# (§2) For adult aphids, new nymphs were counted daily and then discarded. At the end of the experiments, fecundity was measured in two ways: 1) the mean day at which the first offspring for the treatment group was determined and 2) the mean number of offspring produced daily once the aphid reached adulthood. […]
# Aphids LSR-1 (which harbor only Buchnera), Acyrthosiphon pisum were grown on fava bean plants (Vroma vicia faba from Johnny's Selected Seeds) in a climate-controlled incubator (16 h light/8 h dark photoperiod; 60±5% RH; 25±2° C.). […] Aphids were monitored daily for survival and dead aphids were removed from the deep petri dish when they were discovered. […]
# [2] = system: Acyrthosiphon pisum aphids; assay: Aphid fecundity (offspring production); settings: 10 or 100 uM pantothenol
# Description: (§3) In addition, the developmental stage (1st, 2nd, 3rd, 4th, 5th instar) was determined daily throughout the experiment. Once an aphid reached the 4th instar stage, they were given their own artificial feeding system in a deep petri dish so that fecundity could be monitored once they reached adulthood.
# as §1
# as §3, with “5th, and 5R (5th that has reproduced)” for “5th”
# as §2
# In addition, the developmental stage (1st, 2nd, 3rd, 4th, 5th instar) was determined daily throughout the experiment. […]
# [3] = system: Acyrthosiphon pisum aphids; assay: Aphid developmental stage monitoring
# Description: as §3
# Each treatment group received approximately the same number of individuals from each of the collection plant. For each treatment, 20 aphids were placed onto each leaf. Aphids were monitored daily for survival and dead aphids were removed when they were discovered. In addition, the developmental stage (1st, 2nd, 3rd, 4th, 5th instar, and 5R, representing a reproducing 5th instar) was determined daily throughout the experiment. Pictures of aphids were taken throughout the experiment to evaluate size differences between treatment groups.
# (Vroma vicia faba from Johnny's Selected Seeds) in a climate-controlled incubator (16 h light/8 h dark photoperiod; 60±5% RH; 25±2° C.). Prior to being used for aphid rearing, fava bean plants were grown in potting soil at 24° C. with 16 h of light and 8 h of darkness. To limit maternal effects or health differences between plants, 5-10 adults from different plants were distributed among 10 two-week-old plants, and allowed to multiply to high density for 5-7 days. […] Aphids were monitored daily for survival and dead aphids were removed from the deep petri dish when they were discovered. In addition, the developmental stage (1st, 2nd, 3rd, 4th, 5th and 5R (5th that has reproduced) instar) was determined daily throughout the experiment.
# In addition, the developmental stage (1st, 2nd, 3rd, 4th, 5th, and 5R (5th that has reproduced) instar) was determined daily throughout the experiment.
# In addition, the developmental stage (1st, 2nd, 3rd, 4th, 5th, and 5R (5th instar aphids that are reproducing) instar) was determined daily throughout the experiment.
# In addition, the developmental stage (1st, 2nd, 3rd, 4th, and 5th instar) was determined daily throughout the experiment.
# as §3, with “5th, and 5R (5th that has reproduced)” for “5th”
# For each treatment, 30 aphids were placed onto each leaf in triplicate. […] Aphids were monitored daily for survival and dead aphids were removed from the deep petri dish when they were discovered. In addition, the developmental stage (1st, 2nd, 3rd, 4th, 5th, and 5R (5th instar aphids that are reproducing) instar) was determined daily throughout the experiment. […]
compound,measurement,setting,value
CC(C)(CO)[C@@H](O)C(=O)NCCCO [pantothenol],Aphid area (body size),[1],drastic effect of pantothenol treatment; also recorded: smaller in area than untreated controls
same,Aphid reproduction,[2],loss of reproduction
same,Aphid development,"[3]; eNASCO 1st and 2nd instar, 10 or 100 uM pantothenol in artificial diet without essential amino acids, through plants",delayed aphid development; also recorded: Development was delayed
same,Aphid development,"[3]; eNASCO first instar, leaf coating, 100 μl of 10 uM pantothenol in 0.025% Silwet L-77",did not affect aphid development; also recorded: matured at similar rates up to two days post-treatment
